Molecular target: Factor IXa (Homo sapiens, UniProt P00740)
Experiment: Determination of inhibitory activity against Factor IXa (FIXa Low Enzyme; cleavage of fluorescent peptide CH3SO2-D-CHG-Gly-Arg-AFC)
Assay type: biochemical
Details: fluorogenic peptide substrate CH3SO2-D-CHG-Gly-Arg-AFC.AcOH; excitation 405, emission 510
Method: Determination of Inhibitory Activity Against Factor IXa
Formation of a clot to stem bleeding at a site of blood vessel injury involves the coordinated activity of a group of plasma proteins that initiate and propagate fibrin formation and subsequently protect fibrin from premature degradation. Factor IX is a key component of the plasma system that forms a fibrin clot at a site of vascular injury. The activity of Factor IXa is measured by monitoring the cleavage of the fluorescent peptide, CH3SO2-D-CHG-Gly-Arg-AFC.AcOH (“CHG” is cyclohexyl-glycine and “AFC” is trifluoro aminomethyl coumarin). Factor IXa cleaves the […] bond between Arg and AFC, thereby releasing the AFC fluorophore. The free AFC can be detected with a fluorescence detector at an excitation wavelength of 405 nm and emission wavelength of 510 nm.

Chain of Factor IXa (P00740 227-461 limits assumed): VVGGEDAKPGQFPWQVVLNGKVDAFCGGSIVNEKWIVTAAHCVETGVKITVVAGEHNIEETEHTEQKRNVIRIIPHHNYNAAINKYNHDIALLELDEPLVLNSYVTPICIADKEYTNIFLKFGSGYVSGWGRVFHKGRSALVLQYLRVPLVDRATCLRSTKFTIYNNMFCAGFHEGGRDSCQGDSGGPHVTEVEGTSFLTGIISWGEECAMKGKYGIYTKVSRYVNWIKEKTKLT
Chain of Factor IXa (P00740 47-191 partner limits assumed): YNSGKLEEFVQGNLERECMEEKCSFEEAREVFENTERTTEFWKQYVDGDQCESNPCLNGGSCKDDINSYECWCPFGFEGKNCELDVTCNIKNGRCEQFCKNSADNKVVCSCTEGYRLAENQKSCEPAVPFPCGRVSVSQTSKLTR

Going from `C[C@]1([C@@H](O)c2nc(=O)c3c(ccc4c(N)nsc43)[nH]2)OCCN(c2ccn(-c3ccc(=O)n(C(F)F)c3)n2)C1=O` [Example 1, (R)-2-((S)-(3-Amino-9-oxo-6,9-dihydroisothiazolo[5,4-f]quinazolin-7-yl)(hydroxy)methyl)-4-(1-(1-(difluoromethyl)-6-oxo-1,6-dihydropyridin-3-yl)-1H-pyrazol-3-yl)-2-methylmorpholin-3-one] to `C[C@]1([C@@H](O)c2nc(=O)c3c(ccc4c(N)nsc43)[nH]2)OCCN(c2ccn(-c3ccnnc3)n2)C1=O` [Example 2, (R)-2-((S)-(3-Amino-9-oxo-6,9-dihydroisothiazolo[5,4-f]quinazolin-7-yl)(hydroxy)methyl)-2-methyl-4-(1-(pyridazin-4-yl)-1H-pyrazol-3-yl)morpholin-3-one], the “FIXa Low Enzyme” value falls from 102.1 nM to 8.597 nM (12-fold).

First: C[C@](O)(c1nc(=O)c2c(ccc3c(N)nsc32)[nH]1)[C@H]1OCCN(c2cccc(C(F)(F)F)n2)C1=O [Example 3, (R)-2-((S)-1-(3-Amino-9-oxo-6,9-dihydroisothiazolo[5,4-f]quinazolin-7-yl)-1-hydroxyethyl)-4-(6-(trifluoromethyl)pyridin-2-yl)morpholin-3-one]
Second: CC(C)(O)c1cccc(N2CCO[C@](C)([C@@H](O)c3nc(=O)c4c(ccc5c(N)nsc54)[nH]3)C2=O)n1 [Example 4, (R)-2-((S)-(3-Amino-9-oxo-6,9-dihydroisothiazolo[5,4-f]quinazolin-7-yl)(hydroxy)methyl)-4-(6-(2-hydroxypropan-2-yl)pyridin-2-yl)-2-methylmorpholin-3-one]
The “FIXa Low Enzyme” value of the first is 1.6-fold higher: 577.9 nM for the first, 352.7 nM for the second.

Source: patent US9914727B2, “Factor IXa inhibitors” (Merck Sharp & Dohme Corp., priority 2012, dated 2018)
